Broadly, the pKd is −log10 of the Kd, conventionally taken in molar units. As a reminder, the pIC50 is −log10 of the IC50, conventionally taken in molar units.

One assay concerns the target T1, FLT3 (Homo sapiens, UniProt P36888).
T1 construct: made in house
T1 sequence (P36888 27-993): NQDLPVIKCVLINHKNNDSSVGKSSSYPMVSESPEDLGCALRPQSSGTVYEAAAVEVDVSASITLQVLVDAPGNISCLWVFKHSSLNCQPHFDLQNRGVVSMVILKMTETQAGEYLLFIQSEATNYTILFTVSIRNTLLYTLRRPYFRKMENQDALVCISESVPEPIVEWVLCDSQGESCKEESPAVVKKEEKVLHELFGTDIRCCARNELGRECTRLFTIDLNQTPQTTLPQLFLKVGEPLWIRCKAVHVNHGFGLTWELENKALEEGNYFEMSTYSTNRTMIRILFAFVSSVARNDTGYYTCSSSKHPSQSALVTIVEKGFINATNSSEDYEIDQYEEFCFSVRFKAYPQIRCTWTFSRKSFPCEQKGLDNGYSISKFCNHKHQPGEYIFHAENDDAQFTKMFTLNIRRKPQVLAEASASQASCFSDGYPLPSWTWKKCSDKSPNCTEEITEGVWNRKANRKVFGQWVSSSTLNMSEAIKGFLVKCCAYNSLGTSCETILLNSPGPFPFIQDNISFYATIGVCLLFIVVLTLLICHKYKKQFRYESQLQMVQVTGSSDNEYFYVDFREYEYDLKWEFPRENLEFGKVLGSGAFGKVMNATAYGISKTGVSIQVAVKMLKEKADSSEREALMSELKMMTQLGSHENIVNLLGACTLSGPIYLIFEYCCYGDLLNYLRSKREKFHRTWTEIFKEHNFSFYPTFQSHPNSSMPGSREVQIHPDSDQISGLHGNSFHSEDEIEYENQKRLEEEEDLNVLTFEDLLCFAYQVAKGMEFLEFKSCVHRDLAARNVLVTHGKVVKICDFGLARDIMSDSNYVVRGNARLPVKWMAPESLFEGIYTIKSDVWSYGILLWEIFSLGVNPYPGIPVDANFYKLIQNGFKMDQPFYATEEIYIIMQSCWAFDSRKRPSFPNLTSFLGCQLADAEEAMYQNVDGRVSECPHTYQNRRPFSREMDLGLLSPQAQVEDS
Briefly: Competition binding assay, FLT3 Kd. The gist of the method:
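Kd values came from eleven-point threefold dilutions of compound, measured by qPCR of kinase eluted from affinity-ligand beads after 1 h equilibrium binding at room temperature. Kinase was either T7-phage fused or HEK-293-expressed with a DNA tag.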

A further assay concerns M-NFS-60 cells. In words: M-NFS-60 cell proliferation assay (Alamar Blue). It counts as cell-based, mouse. The settings on record: read-out: CSF1R M-NFS-60 CTB:IC50. A digest of the protocol:
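Mouse M-NFS-60 cells growing on 20 ng/mL M-CSF in RPMI/10% FBS were exposed to compounds (9 half-log concentrations, 0.5% DMSO) for 72 h at 37 °C. Viability read by Alamar Blue fluorescence (ex 560/em 590 nm, 3 h). IC50 = 50% proliferation inhibition versus control, mean of duplicates.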
On the technique in general: The colour change of resazurin is a common sign of viable cells or microbes.

Setting [1] is: Mus musculus, M-NFS-60 cell proliferation.
The mark [2] stands for this setting: Mus musculus, 72 hours incubation, M-CSF 20 ng/mL.
Where [3] appears, read: 72 hours incubation, M-CSF 20 ng/mL.

pIC50, pKd: −log10 of the molar value. Like-named read-outs stand apart in the source and are kept apart here.

As to `Fc1cnc2c(c1)ncn2Cc1ccc2nc(N[C@@H]3CCCC[C@H]3Cl)sc2c1` [Example 198, N-((1R,2R)-2-chlorocyclohexyl)-6-((6-fluoro-3H-imidazo[4,5-b]pyridin-3-yl)methyl)benzo[d]thiazol-2-amine], the pKd on FLT3 (competition binding) is 5.30 to 6.00. The pIC50 in the assay with M-NFS-60 cells (setting [1]) was 6.40 to 7.30.

At FLT3, `CSCc1cnc2c(c1)ncn2Cc1ccc2nc(N[C@@H]3CCCC[C@H]3O)sc2c1` [Example 86, (1R,2R)-2-((6-((6-((methylthio)methyl)-3H-imidazo[4,5-b]pyridin-3-yl)methyl)benzo[d]thiazol-2-yl)amino)cyclohexanol] had a pKd of 6.00 to 6.70. In addition, the pIC50 in the assay with M-NFS-60 cells (setting [2]) was 6.40 to 7.30.

Regarding `COc1cc2ncn(Cc3ccc4nc(N[C@@H]5CCCC[C@H]5O)sc4c3)c2cc1-c1cnn(C)c1` [Example 52, (1R,2R)-2-((6-((5-methoxy-6-(1-methyl-1H-pyrazol-4-yl)-1H-benzo[d]imidazol-1-yl)methyl)benzo[d]thiazol-2-yl)amino)cyclohexanol], the pKd on FLT3 is ≥ 6.70. The pIC50 in the assay with M-NFS-60 cells (setting [2]) was 6.40 to 7.30.

At FLT3, `N#Cc1ccc2ncn(Cc3ccc4nc(N[C@@H]5CCCC[C@H]5O)sc4c3)c2n1` [Example 87, 3-((2-(((1R,2R)-2-hydroxycyclohexyl)amino)benzo[d]thiazol-6-yl)methyl)-3H-imidazo[4,5-b]pyridine-5-carbonitrile] showed a pKd of 6.00 to 6.70. Besides, the pIC50 with M-NFS-60 cells (setting [2]) is ≥ 7.30.

As for “either (1S,2R)-2-((6-((3H-imidazo[4,5-b]pyridin-3-yl)methyl)benzo[d]thiazol-2-yl)amino)-1-methylcyclohexanol or (1R,2R)-2-((6-((3H-imidazo[4,5-b]pyridin-3-yl)methyl)benzo[d]thiazol-2-yl)amino)-1-methylcyclohexanol [Example 59]”, the pKd on FLT3 was 5.30 to 6.00. In addition, the negative-log IC50 (pIC50) in the assay on M-NFS-60 cells (setting [3]) was 6.40 to 7.30.

For `COc1cc2ncn(Cc3ccc4nc(N[C@@H]5CCCCC[C@H]5O)sc4c3)c2cc1OC` (racemic) [Example 50, (±)-2-((6-((5,6-dimethoxy-1H-benzo[d]imidazol-1-yl)methyl)benzo[d]thiazol-2-yl)amino)cycloheptanol], the pKd at FLT3 was ≥ 6.70. Moreover, in the assay on M-NFS-60 cells (setting [2]), the pIC50 was ≥ 7.30.

On to `CON=C(C)c1ccn2c(Cc3ccc4nc(N[C@@H]5CCCC[C@H]5O)sc4c3)cnc2c1` [Example 204, 1-(3-((2-(((1R,2R)-2-hydroxycyclohexyl)amino)benzo[d]thiazol-6-yl)methyl)imidazo[1,2-a]pyridin-7-yl)ethanone O-methyl oxime], for which the negative-log Kd (pKd) on FLT3 (competition binding) was 5.30 to 6.00. Moreover, the pIC50 with M-NFS-60 cells (setting [1]) is 6.40 to 7.30.

`CCc1cnc2c(c1)ncn2Cc1ccc2nc(N[C@@H]3CCCC[C@H]3O)sc2c1` [Example 102, (1R,2R)-2-((6-((6-ethyl-3H-imidazo[4,5-b]pyridin-3-yl)methyl)benzo[d]thiazol-2-yl)amino)cyclohexanol] had a pKd at FLT3 of 6.00 to 6.70. Further, the pIC50 in the assay on M-NFS-60 cells (setting [2]) is ≥ 7.30.

Turning to `O[C@@H]1CCCC[C@H]1Nc1nc2ccc(Cn3cnc4cc(-c5cccnc5)cnc43)cc2s1` [Example 40, (1R,2R)-2-((6-((6-(pyridin-3-yl)-3H-imidazo[4,5-b]pyridin-3-yl)methyl)benzo[d]thiazol-2-yl)amino)cyclohexanol], the pKd on FLT3 is ≥ 6.70. In the assay on M-NFS-60 cells (setting [2]), the pIC50 was ≥ 7.30.

In the case of `O=C1CCCC[C@H]1Nc1nc2ccc(Cn3cnc4cccnc43)cc2s1` [Example 54, (R)-2-((6-((3H-imidazo[4,5-b]pyridin-3-yl)methyl)benzo[d]thiazol-2-yl)amino)cyclohexanone], the pKd on FLT3 is < 5.30. In addition, the pIC50 with M-NFS-60 cells (setting [2]) was 6.40 to 7.30.

Take `COc1cc2c(cc1C#N)ncn2Cc1ccc2nc(N[C@@H]3CCCC[C@H]3O)sc2c1` [Example 65, 1-((2-(((1R,2R)-2-hydroxycyclohexyl)amino)benzo[d]thiazol-6-yl)methyl)-6-methoxy-1H-benzo[d]imidazole-5-carbonitrile]: the pKd on FLT3 was 5.30 to 6.00. Also, the pIC50 in the assay on M-NFS-60 cells (setting [2]) is 6.40 to 7.30.

As for `O[C@@H]1CCCC[C@H]1Nc1nc2ccc(Cc3cnc4cc(-n5nccn5)ccn34)cc2s1` [Example 215, (1R,2R)-2-((6-((7-(2H-1,2,3-triazol-2-yl)imidazo[1,2-a]pyridin-3-yl)methyl)benzo[d]thiazol-2-yl)amino)cyclohexanol], on FLT3 (competition binding), the pKd was 5.30 to 6.00. Besides, the pIC50 in the assay with M-NFS-60 cells (setting [1]) is 6.40 to 7.30.

As for `O[C@@H]1Cc2ccccc2[C@H]1Nc1nc2ccc(Cn3cnc4ccc(Br)nc43)cc2s1` [Example 80, (1R,2R)-1-((6-((5-bromo-3H-imidazo[4,5-b]pyridin-3-yl)methyl)benzo[d]thiazol-2-yl)amino)-2,3-dihydro-1H-inden-2-ol], the negative-log Kd (pKd) on FLT3 was 6.00 to 6.70. The negative-log IC50 (pIC50) in the assay on M-NFS-60 cells (setting [2]) was ≥ 7.30.

As to `CC(=O)NCc1cnc2c(c1)ncn2Cc1ccc2nc(N[C@@H]3CCCC[C@H]3O)sc2c1` [Example 99, N-((3-((2-(((1R,2R)-2-hydroxycyclohexyl)amino)benzo[d]thiazol-6-yl)methyl)-3H-imidazo[4,5-b]pyridin-6-yl)methyl)acetamide], the pKd on FLT3 was 5.30 to 6.00. Moreover, the pIC50 with M-NFS-60 cells (setting [2]) is < 5.82.

On FLT3, `O[C@@H]1CCCC[C@H]1Nc1nc2ccc(Cn3cnc4cc(C5CC5)cnc43)cc2s1` [Example 45, (1R,2R)-2-((6-((6-cyclopropyl-3H-imidazo[4,5-b]pyridin-3-yl)methyl)benzo[d]thiazol-2-yl)amino)cyclohexanol] showed a pKd of 6.00 to 6.70. The pIC50 in the assay on M-NFS-60 cells (setting [2]) is ≥ 7.30.

With `C=Cc1cc(F)c2c(c1)ncn2Cc1ccc2nc(N[C@@H]3CCCC[C@H]3O)sc2c1` [Example 207, (1R,2R)-2-((6-((7-fluoro-5-vinyl-1H-benzo[d]imidazol-1-yl)methyl)benzo[d]thiazol-2-yl)amino)cyclohexanol], the pKd on FLT3 (competition binding) is ≥ 6.70. Moreover, in the assay on M-NFS-60 cells (setting [1]), the pIC50 was ≥ 7.30.

The molecule `O[C@@H]1CCCC[C@H]1Nc1nc2ccc(Cn3cnc4cc(Br)cc(F)c43)cc2s1` [Example 203, (1R,2R)-2-((6-((5-bromo-7-fluoro-1H-benzo[d]imidazol-1-yl)methyl)benzo[d]thiazol-2-yl)amino)cyclohexanol] gave a pKd at FLT3 (competition binding) of 6.00 to 6.70. The pIC50 in the assay on M-NFS-60 cells (setting [1]) is 6.40 to 7.30.

On to “either (1R,2R)-2-((6-((3H-imidazo[4,5-b]pyridin-3-yl)methyl)benzo[d]thiazol-2-yl)amino)-1-methylcyclohexanol or (1S,2R)-2-((6-((3H-imidazo[4,5-b]pyridin-3-yl)methyl)benzo[d]thiazol-2-yl)amino)-1-methylcyclohexanol [Example 60]”, for which the pKd on FLT3 is 5.30 to 6.00. For the same molecule, in the assay on M-NFS-60 cells (setting [3]), the pIC50 is 6.40 to 7.30.

For the molecule `O[C@@H]1CCCC[C@H]1Nc1nc2ccc(Cn3cnc4cncnc43)cc2s1` [Example 48, (1R,2R)-2-((6-((9H-purin-9-yl)methyl)benzo[d]thiazol-2-yl)amino)cyclohexanol], at FLT3, the pKd is < 5.30. For the same molecule, in the assay on M-NFS-60 cells (setting [2]), the pIC50 was 6.40 to 7.30.

At FLT3, `ON=C1CCCC[C@H]1Nc1nc2ccc(Cn3cnc4cccnc43)cc2s1` [Example 58, (R)-2-((6-((3H-imidazo[4,5-b]pyridin-3-yl)methyl)benzo[d]thiazol-2-yl)amino)cyclohexanone oxime] had a pKd of 5.30 to 6.00. In addition, in the assay with M-NFS-60 cells (setting [2]), the pIC50 was 6.40 to 7.30.

Take `CC(=O)c1ccn2c(Cc3ccc4nc(N[C@@H]5CCCC[C@H]5O)sc4c3)cnc2c1` [Example 200, 1-(3-((2-(((1R,2R)-2-hydroxycyclohexyl)amino)benzo[d]thiazol-6-yl)methyl)imidazo[1,2-a]pyridin-7-yl)ethanone]: on FLT3 (competition binding), the pKd is < 5.30. Also, the pIC50 with M-NFS-60 cells (setting [1]) was 6.40 to 7.30.

As to `OC[C@@H](Nc1nc2ccc(Cn3cnc4cccnc43)cc2s1)C1CCCCC1` [Example 63, (S)-2-((6-((3H-imidazo[4,5-b]pyridin-3-yl)methyl)benzo[d]thiazol-2-yl)amino)-2-cyclohexylethanol], the negative-log Kd (pKd) at FLT3 was ≥ 6.70. Moreover, in the assay with M-NFS-60 cells (setting [2]), the pIC50 is 6.40 to 7.30.

Turning to `COc1cc2ncn(Cc3ccc4nc(N[C@@H](C)C5CCCCC5)sc4c3)c2cc1OC` [Example 33, (S)—N-(1-cyclohexylethyl)-6-((5,6-dimethoxy-1H-benzo[d]imidazol-1-yl)methyl)benzo[d]thiazol-2-amine], the pKd on FLT3 is 6.00 to 6.70. The pIC50 with M-NFS-60 cells (setting [2]) was 6.40 to 7.30.
